Reference: patent publication US6610708B1, “Cyclic amino compounds” (Sankyo Company, Limited, priority 1998, dated 2003)

Key:
Human Platelets = test: Antiaggregatory action in human platelets (ADP-induced aggregation in platelet-rich plasma); assay type: cell-based; details: Platelet, human PRP, read-out: Test 1 (% inhibition) of platelet aggregation; for inhibition at 10 µg/mL: 10 μg/ml test compound; for inhibition at 30 µg/mL: 30 μg/ml test compound; for inhibition at 100 µg/mL: 100 μg/ml test compound
Description: Antiaggregatory Action in Human Platelets
Platelet aggregation was measured using an automatic platelet aggregometer (PAM-8C, Mebanix) using the method of G.V.R. Born [Nature, 194, 927-929 ([…])] with a slight modification. Blood was collected from the antecubital vein of healthy volunteers who had not taken any medications for two weeks using 3.8% sodium citrate as an anticoagulant ( 1/9 volumes of blood). Platelet-rich plasma (PRP) was obtained by centrifugation (CR5DL, Hitachi) at 200× g for 15 min at room temperature. Platelet-poor plasma (PPP) was obtained by centrifugation of the remaining blood at 2,000× g for 10 min at room temperature. Platelet counts in PRP were measured by an automatic hematology analyzer (K-1000, Toa Iyo Denshi), and adjusted to 3×10^8 /ml by adding PPP. PRP prepared as described above was used for the platelet aggregation experiment. PRP (0.24 ml) containing a test compound was added to a cuvette and set placed in the platelet aggregometer. After pre-incubation for 1.5 min at 37° C., 0.01 ml of 0.25 mM ADP were added to the cuvette to induce platelet aggregation. Platelet aggregation was monitored for 10 min.
Antiaggregatory action of the test compound was determined as a percent inhibition (%) against platelet aggregation of a control (free of the test compound).

platelet aggregation = test: Antiaggregatory action in rats (ADP-induced platelet aggregation in PRP after intravenous administration); assay type: in vivo; details: Rattus norvegicus, 1 h, male SD rats, blood collected one hour after administration, versus control rats, read-out: Test 2 (% inhibition)
Description: Antiaggregatory Action in Rats
Platelet aggregation was measured using an automatic platelet aggregometer (PAM-8C, Mebanix) using the method of G.V.R. Born [Nature, 194, 927-929(1962)] with a slight modification. The experimental animals were male SD rats (Japan SLC). One hour after intravenous administration of a test compound to the rats, blood was collected from the abdominal aorta under anesthesia, using 3.8% sodium citrate as an anticoagulant ( 1/9 volumes of blood). Platelet-rich plasma (PRP) was obtained by centrifugation (CR5DL, Hitachi) at 230× g for 15 min at room temperature. Platelet-poor plasma (PPP) was obtained by centrifugation of the remaining blood at 2,000× g for 10 min at room temperature. Platelet counts in PRP were measured by an automatic hematology analyzer (K-1000, Toa Iyo Denshi), and adjusted to 5×10^8 /ml by adding PPP, and then used for the platelet aggregation experiment. PRP (0.24 ml) was added to a cuvette and placed in the platelet aggregometer. After pre-incubation for 1.5 min at 37° C., 0.01 ml of 0.75 mM ADP were added to the cuvette to induce platelet aggregation. Platelet aggregation was monitored for 8 min.
Antiaggregatory action (% inhibition) of the test compound was determined from a comparison of the maximum aggregation of the test compound-treated rat with that of control rats (free of the administration of the test compound).

SMILES | inhibition at 10 µg/mL (Human Platelets) [%] | inhibition at 30 µg/mL (Human Platelets) [%] | inhibition at 100 µg/mL (Human Platelets) [%] | melting point [°C] | inhibition at 10 mg/kg (platelet aggregation) [%]
Cc1ccc(S(=O)(=O)SC2CCN(C(C(=O)C3CC3)c3ccccc3F)CC2)cc1 (stereo not drawn) [Example 1, 1-(α-Cyclopropylcarbonyl-2-fluorobenzyl)-4-(4-methylphenylsulfonylthio)-piperidine] | 36.5 | 99.6 | 100 | 63 to 69 | –
CCOC(=O)/C=C1\CN(C(C(=O)C2CC2)c2ccccc2F)CCC1SS(=O)(=O)c1ccc(C)cc1 (stereo not drawn) [Example 6 (d), (E)-1-(α-Cyclopropylcarbonyl-2-fluorobenzyl)-3-ethoxycarbonylmethylidene-4-(4-methylphenylsulfonylthio)piperidine] | 22.5 | 53.2 | 100 | – | 51.8
CCOC(=O)/C=C1\CN(C(C(=O)OC)c2ccccc2Cl)CCC1SS(=O)(=O)c1ccc(C)cc1.Cl (stereo not drawn) [Example 7 (d), (E)-1-(2-chloro-α-methoxycarbonylbenzyl)-3-ethoxycarbonylmethylidene-4-(4-methylphenylsulfonylthio)piperidine hydrochloride] | 24.6 | 60 | 99.1 | 73 to 78 | 59
COC(=O)/C=C1\CN(C(C(=O)OC)c2ccccc2Cl)CCC1SS(=O)(=O)c1ccc(C)cc1 (stereo not drawn) [Example 7 (ii), (E)-1-(2-Chloro-α-methoxycarbonylbenzyl)-3-methoxycarbonylmethylidene-4-(4-methylphenylsulfonylthio)piperidine] | 34.5 | 81.5 | – | 144 to 146 | –
CS(=O)(=O)SC1CCN(C(C(=O)C2CC2)c2ccccc2F)CC1 (stereo not drawn) [Example 8, 1-(α-Cyclopropylcarbonyl-2-fluorobenzyl)-4-methylsulfonylthiopiperidine] | 19.5 | 88 | 100 | 89 to 91 | –
N[C@@H](CSSC1CCN(C(C(=O)C2CC2)c2ccccc2F)C/C1=C/C(=O)O)C(=O)O (stereo partly drawn) [Example 19 (d), (Z)-4-[(R)-2-Amino-2-carboxyethyldisulfanyl]-3-carboxymethylidene-1-(α-cyclopropylcarbonyl-2-fluorobenzyl)piperidine] | – | – | – | – | 89.2
N[C@@H](CSSC1CCN(C(C(=O)C2CC2)c2ccccc2F)C/C1=C/C(=O)O)C(=O)O (stereo partly drawn) [Example 19, (Z)-4-[(R)-2-Amino-2-carboxyethyldisulfanyl]-3-carboxymethylidene-1-(α-cyclopropylcarbonyl-2-fluorobenzyl)piperidine] | – | – | – | 135 to 138 | –
